Assay results as given in US20230405151A1, “USE OF IRAK4 MODULATORS FOR GENE THERAPY” (Genzyme Corporation, priority 2022, published 2023).

Key:
[1] = test system: Human monocytic dendritic cells infected with AAV.SAN024; experiment: Cytokine release (Meso Scale Discovery) from dendritic cells treated with IRAK4 modulators and infected with AAV; assay type: cell-based; conditions: for AAV-induced secretion of IL1b cytokine from dendritic cells: 80 nM, all doses
Description: Preparation of peripheral blood mononuclear cells. Blood from leukopaks (Stem cell technologies) from different donors was decanted into 50 mL tubes and Dulbecco's phosphate buffered saline (DPBS) was added at a 1:1 ratio. The blood plus DBPS mix was gently pipetted into a separate 50 mL tube containing 15 mL Ficoll (GE17-5442-02) to ensure no mixing of the blood and Ficoll phases. The mixture was centrifuged at 2000 RPM for 25 minutes at room temperature (9 acceleration and no braking). The buffy coat containing the peripheral blood mononuclear cells (PBMCs) was collected, transferred to a new tube, and centrifuged for five minutes at 400 RCF. PBMCs were washed three times with phosphate buffered saline (PBS) containing 1% fetal bovine serum (FBS) or fetal calf serum (FCS) and counted.
Isolation of monocytes. CD14+ monocytes were isolated from the PBMCs using CD14 MicroBeads following the manufacturer's protocol (Miltenyi Biotech, Germany, order no. 130-050-201, protocol available online world wide web miltenyibiotec.com/upload/assets/IM0001260.PDF). Briefly, PBMCs were incubated with 20 μL of CD14 MicroBeads per 10^7 total cells for 15 minutes at 2-8° C. PBMCs were applied onto a magnetic column (Miltenyi; world wide web miltenyibiotec.com/US-en/products/ls-columns.html#130-042-401) and unlabeled cells were allowed to pass through. After washing the column three times, the column was removed from the magnetic separator, (Miltneyi; world wide web miltenyibiotec.com/US-en/products/quadromacs-separator-and-starting-kits.html#130-091-051) placed on a collection tube, and magnetically labeled CD14+ monocytes were flushed out by pushing a plunger into the column.
Differentiation of monocytes. CD14+ monocytes were differentiated into dendritic cells using ImmunoCult-ACF Dendritic Cell Media, Differentiation Supplement, and Maturation Supplement (Stem Cell Technologies, catalog #10986, #10988, and #10989; world wide web cdn.stemcell.com/media/Files/pis/DX20521-PIS_1_2_0.pdf?_ga=2.81451927.1035383195.1642105700-1174975582.1603298321) following the manufacturer's protocol available online. Briefly, purified CD14+ monocytes were added to Dendritic Cell Media containing the Differentiation Supplement and incubated at 37° C. for three days. On day 3, media was replaced with fresh Dendritic Cell media containing Differentiation Supplement and cells were incubated for two additional days. On day 5, Maturation Supplement was added to the cells at a 1 to 100 dilution (e.g. 50 μL supplement per 5 mL culture). Differentiated dendritic cells were harvested on day 7.
rAAV production and titration. rAAV vectors (AAV.SAN024 and AAV.SAN029) were produced using a standard triple transfection method (Sena-Esteves and Gao, Cold Spring Harb Protoc; doi:10.1101/pdb.top095513, 2020). All serotypes tested encode the same GFP transgene. Viruses were purified by cesium chloride ultracentrifugation and titrated using both silver staining and quantitative polymerase chain reaction (qPCR).
IRAK4 targeting drugs and AAV Treatments. Dendritic cells were plated in 96 well plates with 200,000 cells per well. Each treatment was performed in triplicates. Cells were treated with zimlovisertib IRAK4 inhibitor (Synonyms: PF-06650833) Cat. No.: HY-19836 (MedChemExpress) and PROTAC IRAK4 degrader-1 Cat. No.: HY-129966 (MedChemExpress) at 16 nm, 80 nm, 400 nm and 2000 nm for 18 hrs at 37° C., 5% CO2 in an incubator. […] The cells were incubated at 37° C., 5% CO2 in an incubator for 24 hours. After 24 hours, plates were centrifuged and media supernatant was collected. The clarified media was analyzed by Meso Scale Discovery MSD (world wide web mesoscale.com/products/v-plex-proinflammatory-panel-1-human-kit-k15049d/) performed by DC3 therapeutics https://www.dc3therapeutics.com/services. The experiment outline of PBMC isolation, monocyte purification and dendritic cell differentiation is illustrated in FIG. 1. […]

[2] = test system: Human monocytic dendritic cells; experiment: LDH release assay (cell cytotoxicity); assay type: cell-based; conditions: 16 nM, 80 nM, 400 nM and 2000 nM with AAV.SAN024 MOI 1e5 24 hrs, versus untreated/uninfected cells
Description: IRAK4 targeting drugs and AAV Treatments. Dendritic cells were plated in 96 well plates with 200,000 cells per well. Each treatment was performed in triplicates. Cells were treated with zimlovisertib IRAK4 inhibitor (Synonyms: PF-06650833) Cat. No.: HY-19836 (MedChemExpress) and PROTAC IRAK4 degrader-1 Cat. No.: HY-129966 (MedChemExpress) at 16 nm, 80 nm, 400 nm and 2000 nm for 18 hrs at 37° C., 5% CO2 in an incubator. After pre-treatment of 18 hrs with the drugs, AAV vectors at 1e5 MOI were used. The cells were incubated at 37° C., 5% CO2 in an incubator for 24 hours. After 24 hours, plates were centrifuged and media supernatant was collected. The clarified media was analyzed by Meso Scale Discovery MSD (world wide web mesoscale.com/products/v-plex-proinflammatory-panel-1-human-kit-k15049d/) performed by DC3 therapeutics https://www.dc3therapeutics.com/services. […]
LDH Release Assay. Cell cytotoxicity was measured by release of lactate dehydrogenase (LDH) in media supernatants. LDH was quantified using Promega kit (Catalog #G1780) as per manufacturer's protocol. […] Stop Solution was added, and the absorbance signal is measured at 490 nm in a plate reader. https://www.promega.com/products/cell-health-assays/cell-viability-and-cytotoxicity-assays/cytotox-96-non_radioactive-cytotoxicity-assay/?catNum=G1780#protocols […]

[3] = co-treated with 16 nM, 400 nM and 2000 nM and AAV.SAN024 MOI 1e5 at the same time, 24 hrs
[4] = co-treated with 16-2000 nM and AAV.SAN024 MOI 1e5, 24 hrs
[5] = pre-treated 18 hrs with 16 nM, 400 nM and 2000 nM, then AAV.SAN024 MOI 1e5 24 hrs, three donors
[6] = pre-treated 18 hrs with 16-2000 nM, then AAV.SAN024 MOI 1e5 24 hrs

Compound | AAV-induced secretion of IL1b cytokine from dendritic cells [1, 3] | AAV-induced IL6 release from dendritic cells [1, 4] | AAV-induced TNFα release from dendritic cells [1, 4] | AAV-induced secretion of IL1b cytokine from dendritic cells [1, 5] | AAV-induced IL6 release from dendritic cells [1, 6] | AAV-induced TNFα release from dendritic cells [1, 6] | Cellular toxicity (LDH release in media supernatants) [2]
O=C1CCC(N2C(=O)c3cccc(NCc4cn(CCCNC(=O)c5ccc(-n6cc(NC(=O)c7coc(-c8ccnc(NCC9CC9)c8)n7)c(C(F)(F)F)n6)cc5)cn4)c3C2=O)C(=O)N1 (centres unmarked) [PROTAC IRAK4 degrader-1] | blocked | Cytokine block was also observed | Cytokine block was also observed | blocked | Cytokine block was also observed | Cytokine block was also observed | no cellular toxicity
CC[C@@H]1[C@H](F)C(=O)N[C@@H]1COc1nccc2cc(C(N)=O)c(OC)cc12 [zimlovisertib, 1-[[(2S,3S,4S)-3-Ethyl-4-fluoro-5-oxo-2-pyrrolidinyl]methoxy]-7-methoxy-6-isoquinolinecarboxamide] | blocked | Cytokine block was also observed | Cytokine block was also observed | blocked | Cytokine block was also observed | Cytokine block was also observed | no cellular toxicity
